# Measured values as given in patent publication US8999956B2, “N-[(het)arylalkyl)] pyrazole(thio)carboxamides and their heterosubstituted analogues” (Bayer Intellectual Property GmbH, priority 2010, dated 2015).
# Read-outs that look alike come from different tables or passages of the source.
# Columns and labels:
# Sphaerotheca fuliginea = assay: In vivo preventive test on Sphaerotheca fuliginea (cucumber); conditions: 500 ppm of active ingredient, evaluated 7 days after inoculation
# Experimental: Solvent: 49 parts by weight of N,N-dimethylformamide Emulsifier: 1 part by weight of Alkylarylpolyglycolether To produce a suitable preparation of active compound, 1 part by weight of active compound is mixed with the stated amounts of solvent and emulsifier, and the concentrate is diluted with water to the desired concentration. To test for preventive activity, young plants are sprayed with the preparation of active compound at the stated rate of application. One day after this treatment, the plants are inoculated with an aqueous spore suspension of Sphaerotheca fuliginea. Then the plants are placed in a greenhouse at approximately 23° C. and a relative atmospheric humidity of approximately 70%.
# Alternaria solani = assay: In vivo preventive test on Alternaria solani (tomato); conditions: 500 ppm of active ingredient, evaluated 7 days after inoculation
# Procedure, shortened: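 Preventive set-up: Alternaria solani spores, as aqueous suspension, applied to young plants one day after spraying. Spray contained active compound formulated with N,N-dimethylformamide and emulsifier, water-diluted to the desired application rate.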
# Pyrenophora teres = assay: In vivo preventive test on Pyrenophora teres (barley); conditions: 500 ppm of active ingredient, evaluated 7-9 days after inoculation
# Procedure, shortened: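 Preventive test: young barley plants received a water-diluted spray of compound formulated with DMF solvent plus alkylaryl polyglycol ether emulsifier, at the stated rate. Inoculation with an aqueous spore suspension of Pyrenophora teres followed one day after spraying.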
# Botrytis cinerea = assay: In vivo preventive test on Botrytis cinerea (beans); conditions: 500 ppm of active ingredient, lesion size 2 days after inoculation
# Experimental: Solvent: 24.5 parts by weight of acetone • 24.5 parts by weight of N,N-dimethylacetamide
# Emulsifier: 1 part by weight of alkylaryl polyglycol ether
# To produce a suitable preparation of active compound, 1 part by weight of active compound is mixed with the stated amounts of solvent and emulsifier, and the concentrate is diluted with water to the desired concentration.
# To test for preventive activity, young plants are sprayed with the preparation of active compound. After the spray coating has dried on, 2 small pieces of agar covered with growth of Botrytis cinerea are placed on each leaf. The inoculated plants are placed in a darkened chamber at 20° C. and a relative atmospheric humidity of 100%.
# 2 days after the inoculation, the size of the lesions on the leaves is evaluated. 0% means an efficacy which corresponds to that of the untreated control, while an efficacy of 100% means that no disease is observed.
# [1] = test system: aflatoxines produced by Aspergillus parasiticus; assay: microbe, parasite or virus in culture; format: cell-based
# Aspergillus parasiticus = assay: microbe, parasite or virus in culture; format: cell-based
# Venturia inaequalis = assay: In vivo preventive test on Venturia inaequalis (apple scab); conditions: 100 ppm of active ingredient, evaluated 10 days after inoculation
# Experimental: (§1) Solvent: 24.5 parts by weight of acetone • 24.5 parts by weight of N,N-dimethylacetamide Emulsifier: 1 part by weight of alkylaryl polyglycol ether To produce a suitable preparation of active compound, 1 part by weight of active compound is mixed with the stated amounts of solvent and emulsifier, and the concentrate is diluted with water to the desired concentration. To test for preventive activity, young plants are sprayed with the preparation of active compound at the stated rate of application.
# Septoria tritici = assay: In vivo preventive test on Septoria tritici (wheat); conditions: 500 ppm of active ingredient, evaluated 21 days after inoculation
# Experimental: Solvent: 49 parts by weight of N,N-dimethylacetamide Emulsifier: 1 part by weight of alkylaryl polyglycol ether To produce a suitable preparation of active compound, 1 part by weight of active compound or active compound combination is mixed with the stated amounts of solvent and emulsifier, and the concentrate is diluted with water to the desired concentration. To test for preventive activity, young plants are sprayed with the preparation of active compound or active compound combination at the stated rate of application. After the spray coating has been dried, the plants are sprayed with a spore suspension of Septoria tritici.
# Puccinia triticina = assay: In vivo preventive test on Puccinia triticina (wheat); conditions: evaluated 8 days after inoculation
# [2] = log P by HPLC on reversed-phase column (EEC Directive 79/831 Annex V.A8); format: physicochemical
# Experimental: In table 1, the log P values were determined in accordance with EEC Directive 79/831 Annex V.A8 by HPLC (High Performance Liquid Chromatography) on a reversed-phase column (C18), using the method described below: Temperature: 40° C.; […]
# Leptosphaeria nodorum = assay: In vivo preventive test on Leptosphaeria nodorum (wheat); conditions: 500 ppm of active ingredient, evaluated 7-9 days after inoculation
# Experimental: as §1, with “Solvent: 49 parts by” for “Solvent: 24.5 parts by weight of acetone • 24.5 parts by”, “sprayed with a preparation of” for “sprayed with the preparation of”, “of application. One day after this treatment, the plants are inoculated with an aqueous spore suspension of Leptosphaeria nodorum.” for “of application.”
# [3] = Table K, 500 ppm of active ingredient
Compound,Efficacy (Sphaerotheca fuliginea),Efficacy (Alternaria solani),Efficacy (Pyrenophora teres),Efficacy (Botrytis cinerea; Table L),% Inhibition of Aflatoxin at 50 μM [1],% Inhibition of fungal growth at 50 μM (Aspergillus parasiticus),Efficacy (Venturia inaequalis),Efficacy (Septoria tritici),Efficacy (Puccinia triticina; [3]),% Inhibition of fungal growth at 50 μM (Aspergillus parasiticus; 50 µM),logP [2],"Efficacy (Puccinia triticina; 100 ppm of active ingredient, listed as example 16 disclosed in patent application WO-2010/094666)","pest or weed control at 100 ppm (Puccinia triticina; Puccinia triticina, 192 h, 100 ppm of active ingredient, read-out: Efficacy)","pest or weed control at 500 ppm (Puccinia triticina; Puccinia triticina, 192 h, 500 ppm of active ingredient, read-out: Efficacy)",Efficacy (Botrytis cinerea),Efficacy (Botrytis cinerea; listed as example 16 disclosed in patent application WO-2010/094666),Efficacy (Leptosphaeria nodorum),% Inhibition of Aflatoxin at 50 μM ([1]; 50 µM)
CCC(C)C(C)N(C(=O)c1c(C(F)F)nn(C)c1F)C1CC1 (mixture of isomers) [Example 302],98%,95%,100%,93%,100%,100%,,,,,,,,,,,,
"CC(CC(C)(C)C)C1CCCCC1NC(=O)c1c(C(F)F)nn(C)c1F (single isomer, unassigned) [Example 361]",91%,95%,95%,,100%,,88%,100%,90%,84%,4.89 isomer B,,,,,,,
"Cn1cc(C(=O)N(C2CC2)C2CCCCC2Cc2ccccc2)c(C(F)F)n1 (stereo not shown) [16 from WO-2010/094666, N-(2-benzylcyclohexyl)-N-cyclopropyl-3-(difluoromethyl)-1-methyl-1H-pyrazole-4-carboxamide, reference compound]",,,,,,,,,,,,no protection,0%,< 60%,29%,less than 30%,,
CC(N(C(=O)c1c(C(F)F)nn(C)c1Cl)C1CC1)C(C)(C)Cc1ccccc1 (stereo not shown) [Example 10],,90%,95%,85%,,,,,,,4.27,,,,,,,
CC(CCc1c(Cl)cc(Cl)cc1Cl)N(C(=S)c1c(C(F)F)nn(C)c1F)C1CC1 (stereo not shown) [Example 219],100%,95%,100%,,81%,71%,,,,,5.81,,,,,,90%,
Cn1nc(C(F)F)c(C(=O)N(C2CC2)C2CCCCC2Oc2ccccc2)c1F (stereo not shown) [Example 247],100%,,100%,,,,,,100%,78%,4.21,,,,,,95%,93%
Cn1nc(C(F)F)c(C(=S)N(C[Si](C)(C)Cc2ccccc2)C2CC2)c1F [Example 289],93%,95%,100%,100%,,,,,,,4.67,,,,,,95%,
Cn1nc(C(F)F)c(C(=O)N(C[Si](C)(C)Cc2cccc(Cl)c2)C2CC2)c1F [Example 291],73%,100%,100%,100%,100%,100%,,,,,4.44,,,,,,100%,
Cn1nc(C(F)F)c(C(=O)N(C[Si](C)(C)Cc2ccc(Cl)cc2Cl)C2CC2)c1F [Example 298],85%,100%,100%,,100%,100%,,,,,5.03,,,,,,95%,
CC1CC(N(C(=O)c2c(C(F)F)nn(C)c2F)C2CC2)CC(C)(C)C1 (stereo not shown) [Example 322],90%,90%,100%,,100%,99%,,,95%,,4.31,,,,,,90%,
